In series [1] the target is T1, COX-1 (Homo sapiens, UniProt P23219).
T1 construct: prostaglandin H synthase, an enzyme present in platelets and commonly defined as COX-1; endogenous in cells; host or cells: washed platelets from donors' venous blood (healthy volunteers; patients 5 days after aorto-coronary bypass)
The experiment in a line: Thrombin-induced thromboxane production of aspirinated platelets (TxB2 ELISA). Type of series: cell-based. The note with it: for thrombin-induced production of thromboxane: aspirinated platelets, with or without inhibitor added prior to ASA; for reduction of thromboxane production: inhibitor added prior to ASA, versus aspirinated platelets not pretreated. Here is the method:
The resuspended platelets in the Tyrode's buffer at the concentration of 2.5×10^8 cells/ml were treated with aspirin (50 microM) at 10° C. for 15 min and then kept at 37° C. or at 4° C. for 15 min.
MRP4 inhibitors were used such as Dipyridamole and MK571 ((E)-3-[[[3-[2-(7-chloro-2-quinolinyl)ethenyl]phenyl]-[[3-dimethylamino)-3-oxo-propyl]-thio]-methyl]thio]-propanoic acid), both at 100 microM and incubated 30 min at RT before aspirin addition.
(§1) The evaluation of the biologic efficacy of aspirin in platelets was made by studying Thromboxane A2 production, a specific marker of the cyclooxygenase pathway in platelets. Aspirin and/or Dipyridamole treated platelets (see above) were activated with thrombin 1 U/ml for 1 h at 37° C., and then centrifugated 1 min at 8.000 g. Thromboxane B2, a stable metabolite of TXA2, was measured in the supernatant through a commercial ELISA kit (Cayman, chemicals Co).
In general terms: ELISA stands for enzyme-linked immunosorbent assay.

For series [2] the following is noted: oral administration; cited from earlier work.
Series [3] deals with cardiovascular complications. The note with it: daily intake 75-150 mg/day, patients who previously had coronary disease; cited from earlier work.
For series [4], the target named is T1, COX-1. Put plainly: Thrombin-induced thromboxane production in platelets from bypass patients treated in vitro. It is filed as cell-based. The conditions noted are these: for thromboxane production induced by thrombin: platelets from patients subjected to aorto-coronary bypass, treated in vitro. Here is the method:
patients at 5 days from an aortic-coronary-bypass.
as §1

The target in series [5] is T2, MRP4-mediated transport (Homo sapiens, UniProt O15439).
T2 construct: endogenous in cells; host or cells: washed platelets (and a dense-granule suspension made from them) from donors' venous blood
T2 sequence (O15439 1-1325): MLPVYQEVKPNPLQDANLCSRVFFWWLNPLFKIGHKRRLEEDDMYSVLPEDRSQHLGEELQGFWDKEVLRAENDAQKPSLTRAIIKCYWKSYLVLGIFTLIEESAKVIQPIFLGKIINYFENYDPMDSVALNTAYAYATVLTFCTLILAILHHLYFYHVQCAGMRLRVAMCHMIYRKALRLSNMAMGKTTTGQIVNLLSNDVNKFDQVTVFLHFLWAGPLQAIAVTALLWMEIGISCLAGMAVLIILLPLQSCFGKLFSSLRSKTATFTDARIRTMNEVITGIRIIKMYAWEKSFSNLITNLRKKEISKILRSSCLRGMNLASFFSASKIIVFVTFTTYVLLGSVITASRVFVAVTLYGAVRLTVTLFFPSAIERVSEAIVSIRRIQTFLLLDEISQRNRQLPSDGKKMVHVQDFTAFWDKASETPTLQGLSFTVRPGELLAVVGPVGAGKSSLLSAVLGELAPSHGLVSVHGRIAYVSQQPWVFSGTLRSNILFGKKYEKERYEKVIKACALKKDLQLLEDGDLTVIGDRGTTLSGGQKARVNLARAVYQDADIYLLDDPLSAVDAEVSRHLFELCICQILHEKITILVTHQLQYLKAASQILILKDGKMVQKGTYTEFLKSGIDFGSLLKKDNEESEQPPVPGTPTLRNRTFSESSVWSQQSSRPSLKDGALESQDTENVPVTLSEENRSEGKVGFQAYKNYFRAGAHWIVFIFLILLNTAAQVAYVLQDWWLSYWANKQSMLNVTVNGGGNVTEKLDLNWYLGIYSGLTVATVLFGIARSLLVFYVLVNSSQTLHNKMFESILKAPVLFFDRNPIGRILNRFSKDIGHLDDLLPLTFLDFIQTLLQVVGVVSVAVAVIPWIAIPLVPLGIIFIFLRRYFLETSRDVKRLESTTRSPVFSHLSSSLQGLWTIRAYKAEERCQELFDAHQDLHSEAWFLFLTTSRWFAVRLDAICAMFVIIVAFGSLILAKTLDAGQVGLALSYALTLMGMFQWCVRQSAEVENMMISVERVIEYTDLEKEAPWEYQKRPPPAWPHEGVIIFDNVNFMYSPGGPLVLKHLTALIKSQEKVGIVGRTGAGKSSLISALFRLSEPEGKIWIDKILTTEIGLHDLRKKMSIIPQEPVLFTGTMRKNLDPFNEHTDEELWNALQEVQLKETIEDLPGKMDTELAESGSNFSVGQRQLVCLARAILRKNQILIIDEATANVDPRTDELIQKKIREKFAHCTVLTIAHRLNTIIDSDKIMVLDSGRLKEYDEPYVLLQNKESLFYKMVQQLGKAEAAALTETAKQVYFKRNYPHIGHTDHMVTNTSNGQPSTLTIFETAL
The experiment in a line: Cytosolic concentrations of ASA and salicylic acid in platelets incubated with ASA (HPLC). Type of series: cell-based. The conditions noted are these: for cytosolic concentration of acetylsalicylic acid (ASA) / cytosolic concentration of metabolite salicylic acid: platelets pretreated with inhibitor (dipyridamole 100 microM) 10 minutes before ASA 50 microM, compared to platelets treated with solvent alone (DMSO). An excerpt: (§2) 1987, 9, 243-7) and a beta-counter for measuring the radioactive aspirin.
Dipyridamole, in addition to inhibiting the transport mediated by these channels, is also an inhibitor of platelet activity, in that it increases the platelet concentrations of AMPc, inhibiting phosphodiesterase isoform V (PDE typeV).
(§3) The PRP was then subjected to platelet count through blood cell count Celltac Auto Nihon Kohden (MEK 8118K). The platelets were then moved away from plasma through centrifugation of PRP, acidified at pH 6.5 with ACD (citric acid, sodium citrate and glucose 1/10 v/v), at 800×g for 10 min. and resuspended in Tyrode's buffer (CaCl2 0.20 g/L, KCl 0.20 g/L, […], NaCl 8.00 g/L, NaH2PO4*H2O), at pH 7.35 and charged with glucose and albumin. The preparation of a dense rich platelet granule suspension was made according to the method reported by (Fukami M H et al. J. Cell. Biol. 1978, 77, 389-99) and the degree of purity was verified through mepacrine Fluorimetric probe and the purity percentage was checked through the cytofluorimeter. If the concentration of the dense granules compared to the other organelles was lower than 80%, the suspension of platelet granules was not used for the study.
The resuspended platelets in the Tyrode's buffer at the concentration of 2.5×10^8 cells/ml were treated with aspirin (50 microM) at 10° C. for 15 min and then kept at 37° C. or at 4° C. for 15 min. […]
(§4) The entrapment of aspirin inside platelets or in the dense granules was measured through the method of Gaspari and Locatelli (Ther Drug Monit. 1987, 9, 243-7).

The target of series [6] is T2, MRP4-mediated transport. The experiment in a line: ASA concentration in platelet dense granule preparation treated with ASA and ATP. Type of series: cell-based. Here is the method: as §2, §3
In the rich platelet dense granule suspension, ATP and ASA were added to the preparation, then it was kept at 37° C. for 15 min so a to reduce the transpost mediated by MRP4; the suspension was pretreated either with apyrase, an ATP scavenger substance or with Dipyridamole 30 min before adding aspirin, or the treatment with aspirin was made at 4° C.
as §4

Series [7] deals with T2, MRP4-mediated transport. Put plainly: Release of 14C-labelled ASA and of ATP from thrombin-activated platelets. Type of series: cell-based. The note with it: platelets pretreated with dipyridamole.
Procedure: Aspirin labelled with 14C (American Radiolabeled Chemicals, Inc. Saint Louis, USA) was added to the platelet suspension for 15 min at 37° C. After removing the excess of the substance marked by double centrifugation, the platelets were activated with Thrombin (0.2 U/ml) and then centrifugated. The reduction of the transport mediated by MRP4 was made through the preincubation of the platelet preparation with Dipyridamole 30 min before aspirin addition. The results are reported by evaluating the percentage of the radioactive present in the supernatant compared to the total radioactivity of the platelet preparation. ATP secretion was analyzed as a control through the luminometric method with commercial kit (Chronolog, Hevertown, Pa., USA).
[8] abbreviates: treatment of platelets with ASA at 4° C. instead of 37° C.
[9] abbreviates: pretreatment before ASA, relative to maximum obtained with ATP in external medium at 37° C.

T1 sequence (P23219 24-599): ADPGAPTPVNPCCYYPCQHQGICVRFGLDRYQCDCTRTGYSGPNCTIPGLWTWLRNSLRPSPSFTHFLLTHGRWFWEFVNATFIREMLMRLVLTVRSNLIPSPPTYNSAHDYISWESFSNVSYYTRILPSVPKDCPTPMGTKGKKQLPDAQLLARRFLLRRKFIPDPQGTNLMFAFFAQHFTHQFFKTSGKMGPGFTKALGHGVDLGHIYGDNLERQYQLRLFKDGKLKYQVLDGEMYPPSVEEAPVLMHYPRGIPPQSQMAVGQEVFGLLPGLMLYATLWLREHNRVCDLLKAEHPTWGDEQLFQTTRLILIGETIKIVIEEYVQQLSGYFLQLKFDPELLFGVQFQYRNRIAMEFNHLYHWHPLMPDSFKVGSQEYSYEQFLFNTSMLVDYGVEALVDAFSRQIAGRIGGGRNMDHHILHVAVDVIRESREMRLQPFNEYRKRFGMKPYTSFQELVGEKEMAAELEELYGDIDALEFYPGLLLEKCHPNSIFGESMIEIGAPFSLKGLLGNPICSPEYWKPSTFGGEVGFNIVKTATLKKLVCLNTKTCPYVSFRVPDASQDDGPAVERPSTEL

Take `CC(=O)Oc1ccccc1C(=O)O` [ASA, acetylsalicylic acid]: the “thrombin-induced production of thromboxane” value (“thrombin-induced production” for short) on COX-1 [1] came to 343.7 ng/10^8 cells. Also, in series [2], the bioavailability was 40-50%, the half-life (commonly the time in which the quantity being followed falls by half) was 15 to 20 min, the “plasma concentration peak registered after” value was 30 to 40 min and the “platelet inhibition manifested after administration” value is “one”. In addition, the “reduction of the risk of cardiovascular complications (myocardial infarction, cerebral infarction and vascular death)” value in series [3] is given as 25%. In addition, on COX-1 [4], the “thromboxane production induced by thrombin” value is on record as 1437.0±549.1 ng/10^8 cells. At MRP4-mediated transport [5] (setting [8]), the “increase of cytosolic concentration of ASA” value stood at 240% and the “increase of cytosolic concentration of salicylate” value worked out at 160%. In addition, on MRP4-mediated transport [6] (incubation of ASA at 4° C., relative to maximum obtained with ATP at 37° C.), the “ASA concentration in platelet granules” value was 53.6%.

Take `CN(C)C(=O)CCSC(SCCC(=O)O)c1cccc(/C=C/c2ccc3ccc(Cl)cc3n2)c1` (centres unmarked) [MK-571]: on COX-1 [1], the “thrombin-induced production” value was found to be 140.22 ng/10^8 cells and the “reduction of thromboxane production” value was 59.2%. At MRP4-mediated transport [5], the “cytosolic concentration of acetylsalicylic acid (ASA)” value (from here on “cytosolic concentration … (ASA)”) was 208% and the “cytosolic concentration of metabolite salicylic acid” value is 202%.

With `Clc1cccc(Nc2nnc(-c3ccccc3)c3ccccc23)c1` [MY-5445, 1-(3-chlorophenylamino)-4-phenylphthalazine], at MRP4-mediated transport [5], the “cytosolic concentration … (ASA)” value worked out at 110% and the “cytosolic concentration of metabolite salicylic acid” value was 120%.

Regarding `OCCN(CCO)c1nc(N2CCCCC2)c2nc(N(CCO)CCO)nc(N3CCCCC3)c2n1` [dipyridamole, 2,6-bis-(diethanolamino)-4,8-dipiperidino-(5,4-d)-pyrimidine], at COX-1 [1], the “thrombin-induced production” value was 142.7 ng/10^8 cells and the “reduction of thromboxane production” value is on record as 58%. In addition, on COX-1 [4] (platelets from bypass patients pretreated in vitro before aspirin), the “thromboxane production with respect to platelets treated with aspirin alone” value is on record as 35%. In addition, the “thromboxane production induced by thrombin” value on COX-1 [4] was 499.8±247.7 ng/10^8 cells. Also, on MRP4-mediated transport [5], the “cytosolic concentration … (ASA)” value was 285% and the “cytosolic concentration of metabolite salicylic acid” value is 293%. The “ASA concentration in platelet granules” value on MRP4-mediated transport [6] (setting [9]) was 41.7%. On MRP4-mediated transport [7] (thrombin 0.2 U/ml), the “release of radiolabelled ASA after activation with thrombin” value is reported as “absent”. For the same molecule, the “ATP released by the platelets” value on MRP4-mediated transport [7] (thrombin-activated) worked out at 1.8 ± 0.3 nmol.

Turning to apyrase, the “ASA concentration in platelet granules” value on MRP4-mediated transport [6] (setting [9]) stood at 56.1%.

Values taken from patent publication US20180078569A1, “KITS FOR INDENTIFYING AND TREATING SUBJECTS RESISTANT TO ACETYL SALICYLIC ACID” (priority 2006, published 2018).
